Test system: human neutrophils
Test: Chemotaxis of neutrophils suspended inside G041 substrate in a gradient
Type: cell-based
Conditions: 45-minute video
Source text: For materials in the Examples 2-4, substrates were punched or cut into shapes, sterilized and used to setup gradients of one or more ingredients. In some tests, gradients were further applied to cells in culture. In other tests, suspension of uncultured cells was suspended inside the substrate to which a gradient was applied.
As shown in Example 9 (Brain Culture #5) cells survived without free (substrate-unbound) medium, if overlapped by another substrate with the embedded medium. Accordingly, molecule diffusion studies, and this included gradients formed in one or more substrates, were maintained for longer periods of time without significant gradient “dilution” (by otherwise present surrounding pool of medium) when applied to cells in culture (or to uncultured cells suspended inside the substrate) by way of a substrate overlap method. In short term studies in a humidified incubator, neutrophils were exposed to a gradient inside the substrate, and the substrate was not overlapped by another substrate, yet a significant fraction of cells taxed in a suitable gradient.

“Interleukin 8: cytokine applied as a gradient to neutrophils” was tested, and the “Chemotaxis in applied gradient” value was “Chemotaxis of human neutrophils”.

Reference: US9334473B2, “Three dimensional cell culture compositions and methods of use” (priority 2012, dated 2016)
